From publication PMC5218480 (PLoS ONE, 2017) come the findings set out here.

The subject of the test is MV-4-11 cells. The experiment in a line: Gene expression microarray analysis (Affymetrix PrimeView) and GSEA. More on the design: RFU PODN (11730768_x_at) / Fold change /veh PODN (11730768_x_at) / RFU LINC00158 (11744669_a_at) / Fold change /veh LINC00158 (11744669_a_at) / RFU DUSP10 (11751237_a_at) / Fold change /veh DUSP10 (11751237_a_at) / RFU ID3 (11757404_x_at) / Fold change /veh ID3 (11757404_x_at) / RFU PLEKHG5 (11737974_s_at) / Fold change /veh PLEKHG5 (11737974_s_at) / RFU LRRC4B (11730491_at) / Fold change /veh LRRC4B (11730491_at) / RFU GIMAP4 (11747438_a_at) / Fold change /veh GIMAP4 (11747438_a_at) / RFU KRT8 (11758183_x_at) / Fold change /veh KRT8 (11758183_x_at) / RFU CNN1 (11734310_a_at) / Fold change /veh CNN1 (11734310_a_at) / RFU VPS37D (11726825_at) / Fold change /veh VPS37D (11726825_at) / RFU C10orf10 (11716522_x_at) / Fold change /veh C10orf10 (11716522_x_at) / RFU KIR2DL2 /// KIR2DL4 /// KIR2DL5A /// KIR2DL5B /// KIR2DS1 /// KIR2DS2 /// KIR2DS3 /// KIR2DS4 /// KIR3DL3 /// KIR3DL3 /// KIR3DS1 (11738374_at) / Fold change /veh KIR2DL2 /// KIR2DL4 /// KIR2DL5A /// KIR2DL5B /// KIR2DS1 /// KIR2DS2 /// KIR2DS3 /// KIR2DS4 /// KIR3DL3 /// KIR3DL3 /// KIR3DS1 (11738374_at) / RFU C1QL1 (11718748_at) / Fold change /veh C1QL1 (11718748_at) / RFU TMPRSS4 (11747572_a_at) / Fold change /veh TMPRSS4 (11747572_a_at) / RFU HAMP (11756126_x_at) / Fold change /veh HAMP (11756126_x_at) / RFU RNFT2 (11725882_a_at) / Fold change /veh RNFT2 (11725882_a_at) / RFU NR4A2 (11747474_a_at) / Fold change /veh NR4A2 (11747474_a_at) / RFU ABCC12 (11746883_a_at) / Fold change /veh ABCC12 (11746883_a_at) / RFU TMEM136 (11760407_x_at) / Fold change /veh TMEM136 (11760407_x_at) / RFU CLDN22 /// WWC2 (11732394_at) / Fold change /veh CLDN22 /// WWC2 (11732394_at) / RFU HLA-DPB1 (11760878_x_at) / Fold change /veh HLA-DPB1 (11760878_x_at) / RFU SPINT1 (11716480_a_at) / Fold change /veh SPINT1 (11716480_a_at) / RFU GAP43 (11754022_s_at) / Fold change /veh GAP43 (11754022_s_at) / RFU A4GNT (11735810_at) / Fold change /veh A4GNT (11735810_at) / RFU PRB3 (11715151_x_at) / Fold change /veh PRB3 (11715151_x_at) / RFU TUBB4B (11761932_at) / Fold change /veh TUBB4B (11761932_at) / RFU CAPN14 (11732068_a_at) / Fold change /veh CAPN14 (11732068_a_at) / RFU TMCC2 (11721928_a_at) / Fold change /veh TMCC2 (11721928_a_at) / RFU IRGQ (11745062_a_at) / Fold change /veh IRGQ (11745062_a_at) / RFU FAM174B (11720279_a_at) / Fold change /veh FAM174B (11720279_a_at) / RFU TMPRSS4 (11748680_a_at) / Fold change /veh TMPRSS4 (11748680_a_at) / RFU FAM212B (11763350_a_at) / Fold change /veh FAM212B (11763350_a_at) / RFU PLEKHG5 (11743358_a_at) / Fold change /veh PLEKHG5 (11743358_a_at) / RFU ZSCAN30 (11745921_a_at) / Fold change /veh ZSCAN30 (11745921_a_at) / RFU CMKLR1 (11741424_a_at) / Fold change /veh CMKLR1 (11741424_a_at) / RFU LOC101060620 /// MAPK8IP1 (11723275_at) / Fold change /veh LOC101060620 /// MAPK8IP1 (11723275_at) / RFU SPTSSB (11747773_x_at) / Fold change /veh SPTSSB (11747773_x_at) / RFU PRSS12 (11739890_at) / Fold change /veh PRSS12 (11739890_at) / RFU BIN1 (11741810_x_at) / Fold change /veh BIN1 (11741810_x_at) / RFU WNT11 (11732464_a_at) / Fold change /veh WNT11 (11732464_a_at) / RFU C10orf10 (11716521_a_at) / Fold change /veh C10orf10 (11716521_a_at) / RFU C5orf56 (11738089_at) / Fold change /veh C5orf56 (11738089_at) / RFU CYB561 (11721691_x_at) / Fold change /veh CYB561 (11721691_x_at) / RFU ANKRD19P (11752326_a_at) / Fold change /veh ANKRD19P (11752326_a_at) / RFU OR2T12 /// OR2T33 /// OR2T8 (11738714_s_at) / Fold change /veh OR2T12 /// OR2T33 /// OR2T8 (11738714_s_at) / RFU VCAN (11748164_a_at) / Fold change /veh VCAN (11748164_a_at) / RFU JSRP1 (11732532_at) / Fold change /veh JSRP1 (11732532_at) / RFU KRTAP10-11 (11738290_x_at) / Fold change /veh KRTAP10-11 (11738290_x_at) / RFU MYO3A (11730013_a_at) / Fold change /veh MYO3A (11730013_a_at) / RFU EBF3 (11725865_a_at) / Fold change /veh EBF3 (11725865_a_at) / RFU CAMK2N1 (11719241_x_at) / Fold change /veh CAMK2N1 (11719241_x_at) / RFU C5orf56 (11738088_a_at) / Fold change /veh C5orf56 (11738088_a_at) / RFU OLFML3 (11715873_a_at) / Fold change /veh OLFML3 (11715873_a_at) / RFU LOC100653217 /// NTM (11731650_a_at) / Fold change /veh LOC100653217 /// NTM (11731650_a_at) / RFU MAPK11 (11762145_a_at) / Fold change /veh MAPK11 (11762145_a_at) / RFU FIZ1 (11724087_x_at) / Fold change /veh FIZ1 (11724087_x_at) / RFU OASL (11726364_x_at) / Fold change /veh OASL (11726364_x_at) / RFU SOX15 (11748057_x_at) / Fold change /veh SOX15 (11748057_x_at) / RFU CD79A (11719716_a_at) / Fold change /veh CD79A (11719716_a_at) / RFU HIST1H1D (11736915_at) / Fold change /veh HIST1H1D (11736915_at) / RFU CASKIN2 (11723855_a_at) / Fold change /veh CASKIN2 (11723855_a_at) / RFU LOC730098 (11760151_x_at) / Fold change /veh LOC730098 (11760151_x_at) / RFU OR4N2 (11742367_at) / Fold change /veh OR4N2 (11742367_at) / RFU PRRT2 (11749266_a_at) / Fold change /veh PRRT2 (11749266_a_at) / RFU SNX32 (11753110_a_at) / Fold change /veh SNX32 (11753110_a_at) / RFU CDHR5 (11726645_a_at) / Fold change /veh CDHR5 (11726645_a_at) / RFU RCAN1 (11760418_a_at) / Fold change /veh RCAN1 (11760418_a_at) / RFU FAM167A (11723789_a_at) / Fold change /veh FAM167A (11723789_a_at) / RFU FAM26E (11764081_at) / Fold change /veh FAM26E (11764081_at) / RFU ISYNA1 (11749810_s_at) / Fold change /veh ISYNA1 (11749810_s_at) / RFU ACY1 (11761880_at) / Fold change /veh ACY1 (11761880_at) / RFU 11764098_at / Fold change /veh 11764098_at / RFU SAMD14 (11745864_x_at) / Fold change /veh SAMD14 (11745864_x_at) / RFU NPB (11741838_a_at) / Fold change /veh NPB (11741838_a_at) / RFU TMPRSS6 (11731388_a_at) / Fold change /veh TMPRSS6 (11731388_a_at) / RFU KRTAP10-2 (11738614_at) / Fold change /veh KRTAP10-2 (11738614_at) / RFU ARHGAP8 /// PRR5-ARHGAP8 (11727945_x_at) / Fold change /veh ARHGAP8 /// PRR5-ARHGAP8 (11727945_x_at) / RFU KRTAP5-7 /// NADSYN1 (11734609_at) / Fold change /veh KRTAP5-7 /// NADSYN1 (11734609_at) / RFU RASL12 (11751679_a_at) / Fold change /veh RASL12 (11751679_a_at) / RFU CDKN2B (11736163_a_at) / Fold change /veh CDKN2B (11736163_a_at) / RFU PRF1 (11729649_at) / Fold change /veh PRF1 (11729649_at) / RFU, ZNF638 /// ZNF638-IT1 / Fold change vs veh, ZNF638 /// ZNF638-IT1 / RFU, PANK3 / Fold change vs veh, PANK3 / RFU, SH3YL1 / Fold change vs veh, SH3YL1 / RFU, ZEB2 / Fold change vs veh, ZEB2 / RFU, NRIP1 / Fold change vs veh, NRIP1 / RFU, PTTG1IP / Fold change vs veh, PTTG1IP / RFU, CAPN2 / Fold change vs veh, CAPN2 / RFU, MED14 / Fold change vs veh, MED14 / RFU, SNORA58 / Fold change vs veh, SNORA58 / RFU, C1orf63 / Fold change vs veh, C1orf63 / RFU, LRRFIP1 / Fold change vs veh, LRRFIP1 / RFU, NDUFAF7 / Fold change vs veh, NDUFAF7 / RFU, SLC12A2 / Fold change vs veh, SLC12A2 / RFU, IBTK / Fold change vs veh, IBTK / RFU, ESF1 / Fold change vs veh, ESF1 / Fold change vs veh, TMEM50B / RFU, TAOK1 / Fold change vs veh, TAOK1 / RFU, ACBD3 / Fold change vs veh, ACBD3 / RFU, TMA16 / Fold change vs veh, TMA16 / RFU, RWDD3 / Fold change vs veh, RWDD3 / RFU, BCAT1 / Fold change vs veh, BCAT1 / RFU, EDEM3 / Fold change vs veh, EDEM3 / RFU, TMEM33 / Fold change vs veh, TMEM33 / RFU, WDR75 / Fold change vs veh, WDR75 / RFU, AHCTF1 / Fold change vs veh, AHCTF1 / RFU, TFRC / Fold change vs veh, TFRC / RFU, ZDHHC17 / Fold change vs veh, ZDHHC17 / RFU, NOM1 / Fold change vs veh, NOM1 / RFU, ARL8B / Fold change vs veh, ARL8B / RFU, ZBTB11 / Fold change vs veh, ZBTB11 / RFU, TAMM41 / Fold change vs veh, TAMM41 / RFU, KIAA1704 /// LOC100996395 / Fold change vs veh, KIAA1704 /// LOC100996395 / RFU, ING1 / Fold change vs veh, ING1 / RFU, TRMT61B / Fold change vs veh, TRMT61B / RFU, FUBP3 / Fold change vs veh, FUBP3 / RFU, TP53 / Fold change vs veh, TP53 / RFU, TNKS2 / Fold change vs veh, TNKS2 / RFU, ZFP14 / Fold change vs veh, ZFP14 / RFU, ACTR2 / Fold change vs veh, ACTR2 / RFU, PPP3R1 / Fold change vs veh, PPP3R1 / RFU, PIK3R1 / Fold change vs veh, PIK3R1 / RFU, HNRNPA1 / Fold change vs veh, HNRNPA1 / RFU, RNF170 / Fold change vs veh, RNF170 / RFU, ZNF28 / Fold change vs veh, ZNF28 / RFU, RNGTT / Fold change vs veh, RNGTT / RFU, OGT / Fold change vs veh, OGT / RFU, BRD1 / Fold change vs veh, BRD1 / RFU, MARS / Fold change vs veh, MARS / RFU, ZNF655 / Fold change vs veh, ZNF655 / RFU, FAHD1 / Fold change vs veh, FAHD1 / RFU, BDP1 / Fold change vs veh, BDP1 / RFU, LRRCC1 / Fold change vs veh, LRRCC1 / RFU, ARID1A / Fold change vs veh, ARID1A / RFU, ZNF146 / Fold change vs veh, ZNF146 / RFU, ZNF330 / Fold change vs veh, ZNF330 / RFU, GPN3 / Fold change vs veh, GPN3 / RFU, C9orf123 / Fold change vs veh, C9orf123 / RFU, N4BP2L2 / Fold change vs veh, N4BP2L2 / RFU, ARFIP1 / Fold change vs veh, ARFIP1 / RFU, FAM179B / Fold change vs veh, FAM179B / RFU, BCL10 / Fold change vs veh, BCL10 / RFU, UHRF1BP1L / Fold change vs veh, UHRF1BP1L / RFU, BET1 / Fold change vs veh, BET1 / RFU, CNOT2 / Fold change vs veh, CNOT2 / RFU, ZNF268 / Fold change vs veh, ZNF268 / Fold change vs veh, ZNF507 / RFU, DGCR2 / Fold change vs veh, DGCR2 / RFU, WDSUB1 / Fold change vs veh, WDSUB1 / Fold change vs veh, HSP90B1 /// MIR3652 / RFU, ADSS / Fold change vs veh, ADSS / RFU, GK / Fold change vs veh, GK / RFU, ZNF148 / Fold change vs veh, ZNF148 / RFU, TAF9 / Fold change vs veh, TAF9 / RFU, SLC1A5 / Fold change vs veh, SLC1A5 / RFU, SLMO2 / Fold change vs veh, SLMO2 / RFU, ABCC4 / Fold change vs veh, ABCC4 / RFU, LOC101060439 /// RAP1B / Fold change vs veh, LOC101060439 /// RAP1B / RFU, RFX7 / Fold change vs veh, RFX7 / RFU, GTPBP10 / Fold change vs veh, GTPBP10 / RFU, CNEP1R1 / Fold change vs veh, CNEP1R1 / RFU, BIVM-ERCC5 /// ERCC5 / Fold change vs veh, BIVM-ERCC5 /// ERCC5 / RFU, ILF3 / Fold change vs veh, ILF3 / RFU 11762660_at / Fold change /veh 11762660_at / RFU VCAN (11757783_s_at) / Fold change /veh VCAN (11757783_s_at) / RFU DDX43 (11728927_at) / Fold change /veh DDX43 (11728927_at) / RFU KRT8 (11758188_x_at) / Fold change /veh KRT8 (11758188_x_at) / RFU NKD1 (11759106_at) / Fold change /veh NKD1 (11759106_at) / RFU SRD5A1 (11742802_a_at) / Fold change /veh SRD5A1 (11742802_a_at) / RFU TPSAB1 /// TPSB2 (11721975_s_at) / Fold change /veh TPSAB1 /// TPSB2 (11721975_s_at) / RFU GSTM3 (11746129_a_at) / Fold change /veh GSTM3 (11746129_a_at) / RFU IL23R (11737362_x_at) / Fold change /veh IL23R (11737362_x_at) / RFU TMEM51 (11727254_a_at) / Fold change /veh TMEM51 (11727254_a_at) / RFU PIWIL2 (11732686_x_at) / Fold change /veh PIWIL2 (11732686_x_at) / RFU ORM1 (11744905_x_at) / Fold change /veh ORM1 (11744905_x_at) / RFU CCDC152 (11743942_at) / Fold change /veh CCDC152 (11743942_at) / RFU ECM1 (11717891_a_at) / Fold change /veh ECM1 (11717891_a_at) / RFU IL23R (11748794_a_at) / Fold change /veh IL23R (11748794_a_at) / RFU TNFAIP8L3 (11732012_x_at) / Fold change /veh TNFAIP8L3 (11732012_x_at) / RFU MBOAT4 (11741988_at) / Fold change /veh MBOAT4 (11741988_at) / RFU 11764193_at / Fold change /veh 11764193_at / RFU TMEM53 (11763286_at) / Fold change /veh TMEM53 (11763286_at) / RFU MAGEB2 (11727129_at) / Fold change /veh MAGEB2 (11727129_at) / RFU TMEM200A (11744735_a_at) / Fold change /veh TMEM200A (11744735_a_at) / RFU CCDC152 (11751479_a_at) / Fold change /veh CCDC152 (11751479_a_at) / RFU FAM211A (11726209_a_at) / Fold change /veh FAM211A (11726209_a_at) / RFU RGS16 (11746705_a_at) / Fold change /veh RGS16 (11746705_a_at) / RFU VCAN (11755009_s_at) / Fold change /veh VCAN (11755009_s_at) / RFU RHOB (11743442_s_at) / Fold change /veh RHOB (11743442_s_at) / RFU RGS16 (11720943_a_at) / Fold change /veh RGS16 (11720943_a_at) / RFU RGS16 (11720944_at) / Fold change /veh RGS16 (11720944_at) / RFU, VPS4B / Fold change vs veh, VPS4B / RFU, CREB1 / Fold change vs veh, CREB1 / RFU, DNAJC13 / Fold change vs veh, DNAJC13 / RFU, GNAQ / Fold change vs veh, GNAQ / RFU, CDK5R1 / Fold change vs veh, CDK5R1 / RFU, ZRANB3 / Fold change vs veh, ZRANB3 / RFU, CUL4A / Fold change vs veh, CUL4A / RFU, CCNY / Fold change vs veh, CCNY / RFU, UFL1 / Fold change vs veh, UFL1 / RFU, COG3 / Fold change vs veh, COG3 / RFU, DIAPH2 / Fold change vs veh, DIAPH2 / RFU, SKA2 / Fold change vs veh, SKA2 / RFU, AFF3 / Fold change vs veh, AFF3 / RFU, LMF1 / Fold change vs veh, LMF1 / RFU, IPO11 / Fold change vs veh, IPO11 / RFU, DFFB / Fold change vs veh, DFFB / RFU, FOXP1 / Fold change vs veh, FOXP1 / RFU, CARD8 / Fold change vs veh, CARD8 / RFU, STRN3 / Fold change vs veh, STRN3 / RFU, ADK / Fold change vs veh, ADK / RFU, RASSF2 / Fold change vs veh, RASSF2 / RFU, WIPF1 / Fold change vs veh, WIPF1 / RFU, LARP1B / Fold change vs veh, LARP1B / RFU, RASA1 / Fold change vs veh, RASA1 / RFU, RB1 / Fold change vs veh, RB1 / RFU, PPFIA1 / Fold change vs veh, PPFIA1 / RFU, MAT2A / Fold change vs veh, MAT2A / RFU, CCT5 / Fold change vs veh, CCT5 / RFU, WDR92 / Fold change vs veh, WDR92 / RFU, CUX1 / Fold change vs veh, CUX1 / RFU, TTC7A / Fold change vs veh, TTC7A / RFU, TMEM135 / Fold change vs veh, TMEM135 / RFU, DEPTOR / Fold change vs veh, DEPTOR / RFU, CPM / Fold change vs veh, CPM / RFU, DNAJB6 / Fold change vs veh, DNAJB6 / RFU, CACNA2D3 / Fold change vs veh, CACNA2D3 / RFU, DTX4 / Fold change vs veh, DTX4 / RFU, TFCP2 / Fold change vs veh, TFCP2 / RFU, GMCL1 /// GMCL1P1 / Fold change vs veh, GMCL1 /// GMCL1P1 / RFU, AEBP2 / Fold change vs veh, AEBP2 / RFU, SNHG1 /// SNORD22 /// SNORD25 /// SNORD26 /// SNORD27 /// SNORD28 /// SNORD29 /// SNORD31 / Fold change vs veh, SNHG1 /// SNORD22 /// SNORD25 /// SNORD26 /// SNORD27 /// SNORD28 /// SNORD29 /// SNORD31 / Fold change (Aza/veh), C12orf56 (ProbeSet 11735607_a_at) / Fold change (ACY-1035/veh), C12orf56 (ProbeSet 11735607_a_at) / Fold change (Aza/veh), FGFR1OP (ProbeSet 11751329_s_at) / Fold change (ACY-1035/veh), FGFR1OP (ProbeSet 11751329_s_at) / Fold change (Aza/veh), VPS36 (ProbeSet 11739960_a_at) / Fold change (ACY-1035/veh), VPS36 (ProbeSet 11739960_a_at) / RFU SYPL1 (11715823_x_at) / Fold change /veh SYPL1 (11715823_x_at) / RFU IGFBP7 (11715501_s_at) / Fold change /veh IGFBP7 (11715501_s_at) / RFU REEP3 (11722064_at) / Fold change /veh REEP3 (11722064_at) / RFU IGLL1 (11728026_x_at) / Fold change /veh IGLL1 (11728026_x_at): dose or concentration left out as unconfirmed. Format: cell-based, human. Particulars: MV-4-11 cells, 48 hours.

With `Nc1ccc(-c2cccs2)cc1NC(=O)c1ccc2c(c1)cc(C1CC1)n2CCN1CCOCC1` [ACY-1035], the “RFU ANKRD19P (11752326_a_at)” value is 5.89 RFU.
